Data on three molecules can be found in patent US10005818B2, “Derivative peptide compounds and methods of use” (REALTA HOLDINGS, LLC, priority 2010, dated 2018).

Series [1] relates to hypoxic ischemic brain injury. In kind it is in vivo, Wistar rat.
Series [2] relates to complement-mediated hemolysis of transfused huRBCs. The series is described as follows: AIHTR Wistar rat model, 15% xenotransfusion of human RBCs. In kind it is in vivo. Conditions: CVF 130 μg I.P. 24 hours prior to transfusion.
Method: This process generates 1 ml huRBCs at 80% hematocrit, which was given as a 15% transfusion to the rats.
Using weight-based doses of ketamine and acepromazine, animals were sedated throughout the course of the experiment with periodic monitoring of vital signs. Blood samples were collected into EDTA microtainer tubes (BD) from the animals prior to the huRBC transfusion and then at 30 seconds, 5 minutes, 20 minutes, 60 minutes and 120 minutes after the huRBC transfusion. […] These samples were kept shaking at room temperature prior to processing and centrifuged at 2655×g for five minutes to separate out the plasma and sediment the RBCs. Plasma was aliquoted and the RBC pellet was processed separately as described below. Upon completion of the final (120 minutes or 360 minutes) blood draw, the animal was euthanized using Fatal Plus (Vortech).
Plasma generated from the above experiments was analyzed for the free hemoglobin using spectrophotometry, as described previously (Shah et al. “Clinical hypothermia temperatures increase complement activation and cell destruction via the classical pathway.” J Transl Med 2014; 12:181.).
For series [3] the following is noted: 60 mg [240 mg/kg] i.v.; for ALT / AST / AlkPhos / BUN / Bilirubin / CPK / Creatinine / GGT / Lipase / Platelets / RBC / WBC: rats, n = 6.
In the next series the test system is CV-1 cells. The series is described as follows: Toxicity in CV-1 cells.
A further series is described as follows: Solubility in water. The class given is physicochemical.
For series [4] the following is noted: for ALT / AST / AlkPhos / BUN / Bilirubin / CPK / Creatinine / GGT / Lipase / Platelets / RBC / WBC: rats. As for the experimental part:
Toxicity studies were later performed with larger numbers of animals (n=18 in the treatment group) using a high-dose at the upper end of the therapeutic range (PA-PEG24 (SEQ ID NO: 21) at 40 mg [160 mg/kg] i.v.). Eight animals were sacrificed at day 3, and ten were sacrificed at day 14.

The next series has as its system HSV-1. The series is described as follows: HSV-1-GFP infection of CV-1 cells, flow cytometry. In kind it is cell-based, Herpes Simplex Virus Type 1. Conditions: added to CV-1 cells before infection; 16 hours. As for the experimental part: CV-1 cells were infected with HSV-1-GFP for 16 hours. Post-infection, CV-1 cells were detected by flow cytometry (FIG. 33). […] Acyclovir (the standard of care for severe HSV-1 infections) was also added as a control at the same molar ratio.

Where [5] appears, read: 40 mg [160 mg/kg] i.v., 48 Hr, n = 8.
The mark [6] stands for this setting: 40 mg [160 mg/kg] i.v., Day14, n = 10.

Like-named read-outs stand apart in the source and are kept apart here.

For cobra venom factor [CVF], in series [1] (CVF injection before ligation/hypoxia), the brain injury entry is reported as “almost completely attenuated brain injury”. Moreover, the systemic complement activity result in series [1] (CVF injection, for 72 hours after injection) is given as “almost completely eliminated”. Further, the “free hemoglobin in rat plasma” value in series [2] was “low levels of free hemoglobin”.

As for `CC[C@H](C)[C@H](N)C(=O)N[C@@H](C)C(=O)N[C@@H](CC(C)C)C(=O)N[C@H](C(=O)N[C@@H](CC(C)C)C(=O)N[C@@H](CCC(=O)O)C(=O)N1CCC[C@H]1C(=O)N[C@H](C(=O)N[C@@H](CS)C(=O)N[C@@H](CS)C(=O)N[C@@H](CCC(N)=O)C(=O)N[C@@H](CCC(=O)O)C(=O)N[C@@H](CCCNC(=N)N)C(=O)N[C@@H](C)C(=O)N[C@@H](C)C(=O)NCCOCCOCCOCCOCCOCCOCCOCCOCCOCCOCCOCCOCCOCCOCCOCCOCCOCCOCCOCCOCCOCCOCCOCCOCCC(=O)O)[C@@H](C)CC)[C@@H](C)CC` [PA-dPEG24], in series [3] (brain, heart, lungs, liver, spleen, kidneys, pancreas), the organ histology result is given as “Normal histology”. Also, the “blood work (CBC and complete blood chemistry)” value in series [3] (first 24 hours, 48 hours, day 7 or day 14) is on record as “No toxicities”. Besides, in series [3] (48 Hr), the ALT is 44.0 (±10.4) U/L, the AST was 69.0 (±8.7) U/L, the AlkPhos is given as 194 (±29) U/L and the BUN is reported as 15.8 (±2.1) mg/dL. Also, in series [3] (48 Hr), the Bilirubin is listed as 0.1 (±0) mg/dL, the CPK was 142 (±47) U/L, the Creatinine was 0.3 (±0) mg/dL and the GGT was 1 (±0) U/L. For the same molecule, in series [3] (48 Hr), the Lipase is recorded as 10.3 (±1.5) U/L, the Platelets is 1045 (±156) 10^3/μL, the RBC is on record as 5.3 (±0.3) 10^6/μL and the WBC is recorded as 10.5 (±2.9) 10^3/mL. In addition, in series [3] (Day7), the ALT was 76.3 (±10.9) U/L, the AST is given as 84.3 (±6.74) U/L, the AlkPhos is given as 147 (±34) U/L and the BUN is 13.5 (±1.64) mg/dL. Further, in series [3] (Day7), the Bilirubin is listed as 0.1 (±0) mg/dL, the CPK is 316 (±90) U/L, the Creatinine is 0.4 (±0.1) mg/dL and the GGT is on record as 1 (±0) U/L. Further, in series [3] (Day7), the Lipase is given as 8.5 (±1.05) U/L, the Platelets was 623 (±417) 10^3/μL, the RBC was 5.8 (±0.5) 10^6/μL and the WBC is 5.4 (±1.12) 10^3/mL. For the same molecule, in series [3] (Day14), the ALT was 55.8 (±5.6) U/L, the AST is 104 (±15) U/L, the AlkPhos is listed as 154 (±42) U/L and the BUN is 14.7 (±1.0) mg/dL. In series [3] (Day14), the Bilirubin is 0.1 (±0) mg/dL, the CPK is given as 580 (±172) U/L, the Creatinine was 0.4 (±0.1) mg/dL and the GGT is listed as 1 (±0) U/L. The Lipase in series [3] (Day14) is on record as 9.7 (±2.0) U/L. Moreover, the “toxicity in CV-1 cells” value with CV-1 cells is listed as “minimal toxicity”. Besides, in the series “Solubility in water”, the “solubility in water / aqueous solutions” value was “soluble in water”. Also, in the series “Solubility in water” (Table 6, PEGylated PA peptides), the Solubility in water entry was “Yes”. Further, the Solubility in water result in “Solubility in water” (Table 7, PEGylated and sarcosine/alanine substitution peptides) is listed as “Yes”. Besides, the “blood chemistry assay results (CBC, superchem, coagulation)” value in series [4] (40 mg [160 mg/kg] i.v.) was “no differences between pretreatment, day 3 or day 14 values”. Besides, the organ histology result in series [4] (40 mg [160 mg/kg] i.v., day 3 and day 14) is given as “no histological evidence for toxicity in any organ”. For the same molecule, the single-dose toxicological evaluation entry in series [4] (rat, in vivo) is listed as “no safety concerns”. For the same molecule, in series [4] (setting [5]), the ALT is on record as 62.8 (±4.0) U/L, the AST is on record as 108 (±26) U/L, the AlkPhos is 104 (±19) U/L and the BUN is given as 17.8 (±3.2) mg/dL. In addition, in series [4] (setting [5]), the Bilirubin is 0.1 (±0) mg/dL, the CPK was 538 (±128) U/L, the Creatinine is 0.3 (±0) mg/dL and the GGT is reported as 1.0 (±0) U/L. In series [4] (setting [5]), the Lipase is 11.8 (±1.5) U/L, the Platelets was 987 (±93) 10^3/μL, the RBC is 5.8 (±0.5) 10^6/μL and the WBC was 6.0 (±3.0) 10^3/mL. Further, in series [4] (setting [6]), the ALT is reported as 77.4 (±13.9) U/L, the AST is 111 (±14) U/L, the AlkPhos is recorded as 115 (±56) U/L and the BUN is given as 13.2 (±1.9) mg/dL. Moreover, in series [4] (setting [6]), the Bilirubin is reported as 0.1 (±0) mg/dL, the CPK is 592 (±163) U/L, the Creatinine was 0.3 (±0) mg/dL and the GGT is listed as 1.1 (±0.4) U/L. Also, in series [4] (setting [6]), the Lipase is given as 6.4 (±1.3) U/L, the Platelets was 825 (±229) 10^3/μL, the RBC is on record as 6.6 (±0.4) 10^6/μL and the WBC is reported as 7.3 (±2.5) 10^3/mL.

Turning to `Nc1nc2c(ncn2COCCO)c(=O)[nH]1` [Acyclovir, reference compound], the “toxicity in CV-1 cells” value with CV-1 cells is recorded as “minimal toxicity”. Also, the “inhibition of HSV-1 infection / replication” value with HSV-1 is “never able to completely inhibit replication”.
